In a melting point compilation (Tetko et al.; mined from patent text by program, amines drawn as free bases though some values may be those of a salt) one finds melting point data, which are given here for 85 compounds.

For orientation: melting point means the temperature, or range, at which the solid turns liquid. As for `CCOC(=O)C(Cl)=Cc1cc([N+](=O)[O-])ccc1Cl`, the melting point stood at 91 °C.
`COc1cccc(-c2ccc3ccc(N)nc3n2)c1` had a melting point of 270 to 275 °C.
For `COc1cc(C(=O)CCC(=O)c2cc(OC)c(OC)c(OC)c2)cc(I)c1O` the value was 189 to 190 °C.
Compound `CCN(CC)C(=O)C1=NN(c2ccccc2)C(C(N)=O)=NN1c1ccccc1` showed a melting point of 239 to 240 °C.
The compound `CCN(CC)Cc1ccccc1Oc1ccc(-c2cn(C3CCOC3)c3ncnc(N)c23)cc1` (stereo not given) showed a melting point of 107 to 110 °C.
For `O=C(NCCNCC1COc2ccccc2O1)C12CC3CC(CC1C3)C2` (stereo not given) the value was 143 to 144 °C.
In the case of `COc1cc(Cl)cc2c1OC(COS(=O)(=O)c1ccc(C)cc1)C2` (stereo not given), the melting point fell in the range of 99 to 102 °C.
`Nc1ccc(F)cc1CS(=O)c1nc2ccccc2[nH]1` (stereo not given) came in with a melting point of 184 to 185 °C.
For `COc1ccc(-c2[nH]nc3c2C(=O)c2c(NC(=O)CN4CCOCC4)cccc2-3)cc1` the value was 295 °C; for `FC(F)(F)c1ccc(-c2cc(Oc3ccc4cccnc4c3)nnc2Oc2ccc3cccnc3c2)cc1`, 158 to 162 °C.
For `Cc1noc(NS(=O)(=O)c2ccccc2-c2ccc(-c3ncoc3C)cc2)c1C` the value was 86 to 96 °C; for `Cc1c(N)c(C)c2c(c1-c1ccccc1)OCC2c1ccc(C(C)C)cc1` (stereo not given), 101 to 102 °C.
Turning to `CCCOc1ccccc1C=C1Oc2ccc(C(=O)O)cc2C1=O`, the melting point was 228 to 229 °C.
`CC(=O)Nc1cc(C(C)(C)CC(C)(C)C)ccc1O` had a melting point of 176 to 177 °C.
For `O=C1OC(CCC#Cc2ccccc2)C(O)=C1O` (stereo not given) the value was 145 to 146 °C; for `COC(=O)c1ccc2c(=O)n(Cc3ccc(OC)cc3)c(=O)[nH]c2c1`, 254 to 256 °C.
For `COC(=O)c1ccc(-c2cc(-c3ccccc3)on2)cc1` the value was 201 to 202 °C; for `CCOC(=O)CSCc1cc(-c2nn(C)c(C(F)(F)F)c2Cl)c(F)cc1Cl`, 63 °C.
For `Cn1ccnc1-c1ccc(/C=C/c2ccccc2F)cc1`, the melting point is 60 to 61 °C.
For `CCCC12CCC(=O)C=C1c1c(cc(OC)c(Cl)c1Cl)C2O` (stereo not given) the value was 173 to 175 °C.
Consider `COC(=O)CC(NC(=O)C1CC=CCC1)C(C)=O` (stereo not given), for which the melting point lay in the range of 69 to 70 °C.
In the case of `CC1(C)CC(=O)C2=C(C1)NC1=C(C(=O)CC(C)(C)C1)C2c1ccc(Cl)c(Oc2ccncc2)c1`, the melting point fell in the range of 242 to 244 °C.
In turn, `O=[N+]([O-])c1cc(Cl)ccc1NCCSSCCNc1ccc(Cl)cc1[N+](=O)[O-]` showed a melting point of 187 to 188 °C.
Take `CN(C)Cc1nnc2n1-c1ccc(Cl)cc1N(c1ccccc1)C(=O)C2`: the melting point was 232 to 234 °C.
`[O-][N+]1=C(c2ccccc2F)c2cc(Cl)ccc2C=CC1` displayed a melting point of 138 to 139 °C.
`COc1ccc(/C(C)=C/c2ccc(C(=O)O)cc2)cc1C12CC3CC(CC(C3)C1)C2` returned a melting point of 307 to 308 °C.
The compound `CN(N=Cc1ccco1)C(=O)c1[nH]c2ccccc2c1-c1ccccc1` displayed a melting point of 196 to 199 °C.
The compound `O=c1[nH][nH]c(=O)n1-c1c(F)cc(Cl)c2c1CCCO2` had a melting point of 271 to 273 °C.
For `COC(=O)c1cc(OCc2ccc(OCc3nc(-c4ccccc4)oc3C)c(OC)c2)nn1-c1ccccc1` the value was 143 to 144 °C; for `Cc1c(C)c(N2Cc3cc4c(cc3C2)OCO4)c(C)c2c1OC(C)(C)C2c1ccccc1` (stereo not given), 245 to 248 °C; for `COc1ccc2c(Cc3c(Cl)cncc3Cl)nnc(Nc3nccs3)c2c1`, 218 to 220 °C.
For `O=C(Cc1c(-c2ccccc2)c2cc(O)c(Cl)cc2oc1=O)Nc1ccc(F)cc1C(F)(F)F` the value was 240 to 243 °C.
For `CN(C)c1ccc(C(=O)C(F)c2cccc(Cl)c2)cc1` (stereo not given) the value was 90 to 92 °C; for `ClCc1nc(Cl)c2sccc2n1`, 101 to 102 °C.
As to `CC(C)c1ccc(N(Cc2cnn(CC(F)(F)F)c2)C(=O)C2CCCc3c(O)cccc32)cn1` (stereo not given), the melting point was 128 °C.
`CCCCc1oc2ccccc2c1C(=O)NCc1ccc2c(Br)c(O)ccc2c1` yielded a melting point of 192 to 193 °C.
For `COC(=O)CCn1cc(Cc2cccnc2)c2cc(CCC(=O)O)ccc21` the value was 108 to 110 °C; for `Cc1nc(N2CCN(CCc3c[nH]c4ccccc34)C2=O)sc1C(=O)NCc1cccnc1`, 198 to 201 °C; for `CCCCCCCCCCCCCCCCCCOc1cc(OCCCOc2ccc(O)cc2)cc(C(=O)O)c1`, 92 to 95 °C.
`O=C(CCCCCN1CCN(c2cccc3c2OCCCO3)CC1)N1Cc2ccccc2C1` displayed a melting point of 131 °C.
For the compound `CCO[PH](=O)Cc1cc(Oc2ccc(C(F)(F)F)cc2Cl)ccc1[N+](=O)[O-]` (stereo not given), the melting point lay within 106 to 107 °C.
Turning to `CCc1c(N)c(C(N)=O)nn1C1CN(CC)C1`, the melting point is 155 to 157 °C.
As to `CC(=O)OCCCC(C(=O)C=Cc1ccc(O)c(OC(F)(F)F)c1)C(=O)C=Cc1ccc(O)c(OC(F)(F)F)c1` (stereo not given), the melting point is 130 to 131 °C.
Compound `CCCc1nn(CC)c(C(=O)O)c1Cc1ccc(-c2ccccc2NS(=O)(=O)C(F)(F)F)cc1` had a melting point of 68 to 72 °C.
For `COC(=O)NNC(=O)Nc1cccc2c1C(=O)c1c-2n[nH]c1-c1ccc(OC)cc1` the value was more than 300 °C.
For `COc1cn(-c2ccccc2F)nc(C(C)=O)c1=O` the value was 154 to 156 °C; for `OCCc1ccc(Cl)cc1CO`, 75 to 76 °C; for `COCCCNC(=O)C(C)(C(C)C)C(C)C`, 10 °C.
For `Cc1c(-c2cc(Cl)cc(Cl)c2)ccc2nc(N)nc(N)c12` the value was more than 250 °C; for `CCN(C)CCc1[nH]c2ccccc2c1CSc1ccccc1`, 77 to 79 °C; for `COC(=O)[C@@](C#N)(COCc1ccccc1)[C@H](c1ccccc1OC)c1cccc2ccccc12` (relative stereo), 133 to 134 °C.
Compound `CCOCc1nc2c(N)nc3ccccc3c2n1CC1(NC(=O)OCC)CCCCC1` gave a melting point of 95 to 100 °C.
For `OC1CCCc2nc3ccccc3c(NCc3cccc(F)c3)c21` (stereo not given) the value was 128 °C.
Compound `Cc1oc(-c2ccccc2)nc1CCc1ccc(/C=C/C=C/CO)cc1` returned a melting point of 117 to 118 °C.
Compound `COCOc1c(CCO)c(OC)c(OCOC)c(CCCCCc2c(OC)c(OCOC)c(CCO)c(OC)c2OCOC)c1OC` showed a melting point of 68 to 70 °C.
In turn, `COc1ccc(C2=N[C@H](c3ccccc3)CO2)cc1C#CCN(O)C(N)=O` showed a melting point of 190 to 192 °C.
The compound `CCOC(=O)C=Cc1c(-c2ccccc2)nn2ccccc12` came in with a melting point of 54 to 55 °C.
For `CCOc1cc2ncc(C#N)c(Nc3ccc4cc[nH]c4c3)c2cc1OCC` the value was 128 to 130 °C.
`C=Cn1ccnc1C(O)(c1ccc(Cl)cc1)c1ccc(Cl)cc1` came in with a melting point of 174 °C.
For `CCOCc1nc2c(N)nc3cc(OCCNC(=O)OC(C)(C)C)ccc3c2n1CC1COC(C)(C)O1` (stereo not given) the value was 82 to 84 °C; for `CC(C)NCC(O)COc1ccc(OCCOCC2CCC2)cc1` (stereo not given), 56 °C.
For `COc1cc(C)nc(N(C)C(=O)NS(=O)(=O)c2cc(Cl)ccc2Cl)n1` the value was 182 to 185 °C; for `CC1(C)OC(=O)C(Br)(CCn2cccc2C(=O)c2ccccc2)C(=O)O1`, 89 to 91 °C.
For `CCCOc1cc(-c2nc(-c3ccc(C(=O)OC)o3)cs2)ccc1OC` the value was 141 to 142 °C; for `CCCCCCCCCCCCSCCCN=C=O`, 91 to 92 °C.
`COc1ccc(-c2ccnc3c(C(N)=O)ncn23)cc1OC` returned a melting point of 262 to 265 °C.
`CC(C)NCCCC(O)c1ccccc1-c1ccccc1` (stereo not given) yielded a melting point of 78 to 80 °C.
For `Cc1c(C)c2c(c(C)c1NCc1cccs1)C(c1ccc(C(C)C)cc1)C(C)(C)O2` (stereo not given) the value was 101 to 103 °C.
For `CN(CC1=NC(=S)N=N1)C(COCc1cc(C(F)(F)F)cc(C(F)(F)F)c1)C(c1ccccc1)c1ccccc1` (stereo not given) the value was 192 to 194 °C; for `CC(Cc1ccc(OCC(N)=O)cc1)NCC(O)c1ccccc1` (stereo not given), 158 to 162 °C; for `O=C(CSc1ccc(Cl)c(Cl)c1)C12CC3CC(CC(C3)C1)C2`, 105 to 110 °C.
For `CN(C(=O)OC(C)(C)C)c1cc(Oc2ccc(OCc3ccccc3)cc2)ccc1[N+](=O)[O-]` the value was 108 to 110 °C.
The compound `CC(Sc1cc(C(C)(C)C)c(O)c(C(C)(C)C)c1)C(=O)O` (stereo not given) had a melting point of 110 to 113 °C.
As for `Cc1c(NC(=O)N2CCC(c3ccc(Cl)cc3)CC2)ccc2cc(CN3CCCC3)cnc12`, the melting point fell in the range of 203 to 205 °C.
For `OC1CCCc2cnc3cc(OCc4ccccc4)ccc3c21` (stereo not given) the value was 155 to 157 °C.
For `CCOC(=O)c1nc2scc(CN=[N+]=[N-])c2c(=O)[nH]1` the value was 192 °C; for `CCCn1cc(C(N)=O)c(N)n1`, 160 to 163 °C.
For `Cc1ccc2c3c(ccc2n1)OCC(CN1CC=C(c2c[nH]c4ccccc24)CC1)O3` (stereo not given) the value was 210 °C.
In turn, `COc1ccc(C2(C#Cc3ccc(C#N)s3)CCC(=O)CC2)cc1OC1CCCC1` showed a melting point of 106 to 107 °C.
For `CN1C(=O)C(C2=COc3cc4ccccc4cc3O2)=C(c2cn(C(=O)OC(C)(C)C)c3ccccc23)C1=O` the value was 158 °C.
`O=C(NC1CCSc2cc(C(=O)O)ccc21)OCc1ccccc1` (stereo not given) had a melting point of 202 to 205 °C.
For `O=c1nc(NCCCOc2cc(CN3CCCCC3)ccn2)c2ccccc2[nH]1` the value was 189 to 192 °C; for `O=C(c1ccc(Nc2ccncc2)cc1)N1CCCCC1`, 170 to 172 °C; for `CCc1nc(OC)c(NC(=O)N2CCN(c3cc(C)cc(C)c3)CC2)cc1C(=O)NC(C)C(=O)Nc1cc(CO)cc(Nc2c3ccccc3nc3ccc(C)cc23)c1` (stereo not given), 164 to 166 °C.
For `COc1cc(OC)cc(C(NCC(=O)Nc2c(C(C)C)cccc2C(C)C)c2ccccc2)c1` (stereo not given) the value was 111 to 112 °C.
